Values of other authors as cited in patent publication EP1694242B1, “PROCESS FOR MAKING PHARMACEUTICAL 7-(2-TRIMETHYLSILYLETHYL) CAMPTOTHECIN FORMULATIONS” (BIONUMERIK PHARMACEUTICALS, INC., priority 2003, dated 2005).

Settings: fraction of the potency of the lactone form; background statement

CC[C@@](O)(C(=O)O)c1cc2n(c(=O)c1CO)Cc1cc3ccccc3nc1-2 [carboxylate form of CPT]
antitumor potency of the carboxylate form relative to the lactone form of CPT: one-tenth
